Experimental data reported in patent publication US11395867B2, “Degradable removable implant for the sustained release of an active compound” (Janssen Sciences Ireland Unlimited Company, priority 2009, dated 2022).
Where “and” joins values, the source holds several entries; their conditions need not be identical. Equal entries are not always repeated.

Columns and labels:
[1] = In vivo testing of electrostatically spun tube containing two sets of microparticles, plasma concentrations; parameters: species or system Sprague-Dawley rats; settings: rat, subcutaneous electrospun tube implant, TMC278 139 mg/kg, compound 1 64 mg/kg, individual animals 1-4
Protocol: Tubes were electrostatically spun from a 100 mg/ml polydioxanone (IVHFIP=1.99 dl/g) hexafluoroisopropanol solution. A 4 mm mandrel was used to provide a consistent inner diameter of 4 mm. The rotational speed of the mandrel was 400 rpm, the charging voltage range was 20/−10 kV, and the pump flow rate was 10 ml/hour. The resulting wall thickness was 500 microns. Fiber diameters were 1-2 microns and the average pore size formed from the network of fibers was 20 microns as determined by Scanning Electron Microscopy.
The microparticles were prepared by the spinning disc method using a polymer/acetone solution with a concentration ranging from 3-4% (w/w). Two sets of microparticles were prepared. The target composition of one set was 70% (w/w) TMC278 and 30% (w/w) PLGA 50/50 (Lakeshore Biomaterials IVHFIP=0.79 dl/g). The target composition of the other set of microparticles was 70% (w/w) of compound 1 (=compound 14 of WO01/25240) and 30% (w/w) PLGA 50/50 (Lakeshore Biomaterials IVHFIP=0.18 dl/g). This compound 1 has the following structure and will be referred to hereinafter as compound 1:
Approximately 133 mg of the microparticle mixture was introduced into the electrostatically prepared tubes using a spatula.
(§1) The prepared tubes were implanted into the subcutaneous space on the back of four male Sprague-Dawley rats weighing between 250-350 grams. The dose of TMC278 was 139 mg/kg and the dose of compound 1 was 64 mg/kg. The tail vein was sampled at pre-determined time points. Blood samples were immediately centrifuged to extract the plasma, plasma was analyzed for compound 1 and TMC278 by LC/MS/MS. The lower limit of quantitation was 0.4 ng/ml and 2 ng/ml for TMC278 and compound 1, respectively.

[2] = In vivo testing of laser drilled melt extruded tube containing two sets of microparticles formulated with F108, plasma concentrations; parameters: species or system Sprague-Dawley rats; settings: rat, subcutaneous laser drilled extruded tube implant, TMC278 109 mg/kg, compound 1 78 mg/kg, individual animals 1-4
Protocol: The laser drilled melt extruded tube was prepared as described above in example 10. The microparticles were prepared by the spinning disc method using a 3% (w/w) polymer/acetone solution. Two sets of microparticles were prepared. The target composition of one set was 70% (w/w) TMC278, 20% (w/w) PLGA 50/50 (Lakeshore Biomaterials IVHFIP=0.79 dl/g), and 10% (w/w) F108 (BASF). The target composition of the other set of microparticles was 70% (w/w) compound 1, 20% (w/w) PLGA 50/50 (Lakeshore Biomaterials IVHFIP=0.18 dl/g), and 10% (w/w) F108. The F108 was added to the polymer solution.
The size range of the microparticles was determined by randomly selecting a sample of microparticles and placing them on the stage of an optical microscope and using a ruler to measure the various sizes of the microparticles in the randomly selected sample. The size range of the TMC278 and compound 1 microparticles was 10-100 microns and 20-100 microns, respectively. Microparticles were mixed as described in example 9. Approximately 133 mg of the microparticle mixture was introduced into tubes using a spatula to transfer the contents.
as §1, with “TMC278” for “TMC278 was 139 mg/kg”, “and” for “and the dose of”, “109 mg/kg and 78 mg/kg, respectively.” for “64 mg/kg.”, “quantitation for TMC278 and compound 1” for “quantitation”, “ng/ml,” for “ng/ml for TMC278 and compound 1,”

[3] = Solubility experiments of TMC278 in water; format: physicochemical
Text: The solubility of TMC278 dramatically increases at pH=2. […] The use of an acidic binder gel that can effectively lower pH, can increase the rate of elution of TMC278 from the polymer matrix. Increasing the concentration of the acidic polymer in the gel can depress the pH even further (Table 1).

[4] = In vivo testing of laser drilled melt extruded tube containing two sets of microparticles, plasma concentrations; settings: rat, subcutaneous laser drilled extruded tube implant, TMC278 139 mg/kg, compound 1 64 mg/kg, individual animals 1-4
Protocol: Tubes with inner diameter of 4.5 mm were extruded from polydioxanone (IVHFIP=1.99 dl/g) using a ¾ inch single screw extruder fitted with a tube die. The dimensions of the tube were monitored using an in-line laser diameter measuring system and maintained using a puller. Following the extrusion the tubes were laser drilled. In preparation for the laser drilling a mask design was prepared that located the holes 260 microns apart from one another. Scanning electron microscopy was used to size the inner and outer diameter of the holes. […] The microparticles were prepared as described in Example 9. Approximately 133 mg of the microparticle mixture was introduced into the tubes.
as §1, with “plasma, and” for “plasma,”, “quantitation for TMC278 and compound 1” for “quantitation”, “2.0 ng/ml,” for “2 ng/ml for TMC278 and compound 1,”

[5] = male, Sprague-Dawley, plasma, subcutaneous, 7 day
[6] = male, Sprague-Dawley, plasma, subcutaneous, 14 day

**Q.** With Cc1cc(/C=C/C#N)cc(C)c1Nc1ccnc(Nc2ccc(C#N)cc2)n1 [TMC278, rilpivirine] as the molecule, how does the plasma concentration ([1]; 3 hour) read?
**A.** 0.562 ng/mL and 0.462 ng/mL and 0.576 ng/mL

**Q.** What about the plasma concentration ([1]; 1 day) of the same molecule?
**A.** 0.441 ng/mL and <0.4 ng/mL and 0.575 ng/mL

**Q.** And the plasma concentration ([1]; 3 day)?
**A.** 0.518 ng/mL and <0.4 ng/mL and 0.549 ng/mL

**Q.** What about the plasma concentration ([1]; 7 day) of the same molecule?
**A.** 0.645 ng/ml and <0.4 ng/ml (2×)

**Q.** What about the plasma concentration ([1]; 14 day) of the same molecule?
**A.** <0.4 ng/ml (2×) and 0.424 ng/ml

**Q.** And the plasma concentration ([1]; 28 day)?
**A.** <0.4 ng/ml (2×) and 0.475 ng/ml

**Q.** What about the plasma concentration ([1]; 35 day) of the same molecule?
**A.** 0.527 ng/mL and 0.769 ng/mL and 0.400 ng/mL

**Q.** And the concentration at 3 h ([1]; male, Sprague-Dawley, plasma, subcutaneous, 3 hour)?
**A.** 0.505 ng/mL

**Q.** And the concentration at 1 day ([1]; male, Sprague-Dawley, plasma, subcutaneous, 1 day)?
**A.** < 0.4 ng/mL

**Q.** What about the concentration at 3 day ([1]; male, Sprague-Dawley, plasma, subcutaneous, 3 day) of the same molecule?
**A.** < 0.4 ng/mL

**Q.** And the concentration at 7 day [1, 5]?
**A.** 0.421 ng/mL

**Q.** And the concentration at 14 day [1, 6]?
**A.** < 0.4 ng/mL

**Q.** And the concentration at 28 day ([1]; male, Sprague-Dawley, plasma, subcutaneous, 28 day)?
**A.** < 0.4 ng/mL

**Q.** And the concentration at 35 day ([1]; male, Sprague-Dawley, plasma, subcutaneous, 35 day)?
**A.** < 0.4 ng/mL

**Q.** What about the plasma concentration ([2]; 3 hour) of the same molecule?
**A.** 2.12 ng/mL and 1.40 ng/mL and 2.42 ng/mL and 1.02 ng/mL

**Q.** What about the plasma concentration ([2]; 1 day) of the same molecule?
**A.** 0.797 ng/mL and 0.522 ng/mL and 0.939 ng/mL and <0.4 ng/mL

**Q.** What about the plasma concentration ([2]; 3 day) of the same molecule?
**A.** <0.4 ng/ml (2×) and 0.521 ng/ml

**Q.** What about the plasma concentration ([2]; 7 day) of the same molecule?
**A.** <0.4 ng/ml (2×) and 0.405 ng/ml

**Q.** What about the plasma concentration ([2]; 14 day) of the same molecule?
**A.** <0.4 ng/mL and 0.478 ng/mL and 0.664 ng/mL

**Q.** And the plasma concentration ([2]; 28 day)?
**A.** 2.13 ng/mL and 0.539 ng/mL and 1.13 ng/mL and 2.19 ng/mL

**Q.** And the plasma concentration ([2]; 35 day)?
**A.** 2.17 ng/mL and 0.744 ng/mL and 1.48 ng/mL and 2.48 ng/mL

**Q.** What about the concentration at 3 day ([2]; male, Sprague-Dawley, plasma, 3 day) of the same molecule?
**A.** 0.485 ng/mL

**Q.** What about the concentration at 7 day ([2]; male, Sprague-Dawley, plasma, 7 day) of the same molecule?
**A.** < 0.4 ng/mL

**Q.** And the concentration at 14 day ([2]; male, Sprague-Dawley, plasma, 14 day)?
**A.** 0.6 ng/mL

**Q.** What about the “solubility in water at pH of 2 relative to pH of 7” value ([3]; pH 2 vs pH 7) of the same molecule?
**A.** 950 times

**Q.** What about the solubility in water ([3]; water) of the same molecule?
**A.** extreme insolubility

**Q.** And the plasma concentration ([4]; 3 hour)?
**A.** 0.551 ng/mL and 1.42 ng/mL and 2.51 ng/mL and 1.61 ng/mL

**Q.** What about the plasma concentration ([4]; 1 day) of the same molecule?
**A.** <0.4 ng/ml (2×) and 0.432 ng/ml and 1.22 ng/ml

**Q.** What about the plasma concentration ([4]; 3 day) of the same molecule?
**A.** <0.4 ng/ml (3×) and 1.14 ng/ml

**Q.** And the plasma concentration ([4]; 7 day)?
**A.** 0.4 ng/mL and 0.695 ng/mL and <0.4 ng/mL

**Q.** And the plasma concentration ([4]; 14 day)?
**A.** <0.4 ng/mL and 0.425 ng/mL and 0.456 ng/mL

**Q.** And the plasma concentration ([4]; 28 day)?
**A.** <0.4 ng/mL and 0.451 ng/mL and 1.36 ng/mL and 0.773 ng/mL

**Q.** And the plasma concentration ([4]; 35 day)?
**A.** <0.4 ng/mL and 0.403 ng/mL and 2.11 ng/mL and 0.881 ng/mL

**Q.** And the concentration at 7 day [4, 5]?
**A.** < 0.4 ng/mL

**Q.** And the concentration at 14 day [4, 6]?
**A.** < 0.4 ng/mL
